Laboratory results published in PubChem BioAssay (NCI).
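Cultured in 96-well plates, cells were exposed to test compound for 48 hours across five concentrations. TGI: total growth inhibition.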

Assays:
Experiment in all cases: inhibition of tumour cell growth, NCI panel, 48 h
A549 NSCLC = system: A549 NSCLC
COLO 205 colon = system: COLO 205 colon
HCT-15 colon = system: HCT-15 colon
HL-60(TB) leukemia = system: HL-60(TB) leukemia
HOP-62 NSCLC = system: HOP-62 NSCLC
MOLT-4 leukemia = system: MOLT-4 leukemia
NCI-H23 lung = system: NCI-H23 lung
NCI-H460 lung = system: NCI-H460 lung
OVCAR-3 ovarian = system: OVCAR-3 ovarian
OVCAR-8 ovarian = system: OVCAR-8 ovarian
SF-295 CNS = system: SF-295 CNS
SK-MEL-5 melanoma = system: SK-MEL-5 melanoma
SNB-75 CNS = system: SNB-75 CNS
SW-620 colon = system: SW-620 colon
UACC-257 melanoma = system: UACC-257 melanoma
UACC-62 melanoma = system: UACC-62 melanoma
UO-31 renal = system: UO-31 renal
M14 melanoma = system: M14 melanoma
MALME-3M melanoma = system: MALME-3M melanoma
MDA-N = system: MDA-N

SMILES	TGI (A549 NSCLC) [µM]	TGI (COLO 205 colon) [µM]	TGI (HCT-15 colon) [µM]	TGI (HL-60(TB) leukemia) [µM]	TGI (HOP-62 NSCLC) [µM]	TGI (MOLT-4 leukemia) [µM]	TGI (NCI-H23 lung) [µM]	TGI (NCI-H460 lung) [µM]	TGI (OVCAR-3 ovarian) [µM]	TGI (OVCAR-8 ovarian) [µM]	TGI (SF-295 CNS) [µM]	TGI (SK-MEL-5 melanoma) [µM]	TGI (SNB-75 CNS) [µM]	TGI (SW-620 colon) [µM]	TGI (UACC-257 melanoma) [µM]	TGI (UACC-62 melanoma) [µM]	TGI (UO-31 renal) [µM]	TGI (M14 melanoma) [µM]	TGI (MALME-3M melanoma) [µM]	TGI (MDA-N) [µM]
CC12NN=NC1C(=O)NC2=O (stereo unspecified)	> 100	> 100	> 100	> 100	> 100	> 100	> 100	> 100	> 100	> 100	> 100	> 100	> 100	> 100	> 100	> 100	> 100			
COC(=O)c1c2n(c3ccccc13)C[C@H]1OC(C)(C)O[C@@H]21	> 100	> 100	> 100	> 100	> 100	> 100	> 100	> 100	> 100	> 100	> 100	> 100	> 100	> 100	> 100	> 100	> 100	> 100	> 87.6	
CCCN(C(=O)c1c(Cl)nnc(Cl)c1C(=O)c1cc(Cl)nnc1Cl)c1cc(Cl)nnc1Cl	> 100	18.6	18.5	7.16	48.8	12.5	20.3	70.4	26.6	5.78	42.3	21.4	32.5	25.5	42.1	24.9	33.2	40.8		30
CCOC(=O)C1=C(O)C(=O)c2ccsc2C1=O	> 100	> 100	> 100	> 100	> 100	> 100	> 100	> 100	> 100	> 100	> 100	> 100	> 100	> 100	> 100	> 100	> 100	> 100	> 100	
COc1ccccc1NC(=O)/C(Cc1nc2ccc([N+](=O)[O-])cc2[nH]c1=O)=N\NC(=O)C[N+](C)(C)C	> 100	> 100	> 100	93.1	> 100	> 100	> 100	> 100	> 100	> 100	> 100	> 100	> 100	> 100	> 100	> 100	> 100	> 100		36
COc1cc2cc(C(=O)N3CC(CCl)c4ccc(O)cc43)[nH]c2c(OC)c1OC (stereo unspecified)	1.25	0.0451	0.0412				0.812		0.015	0.0253	0.00398	0.000396	0.0652	0.137		0.00683	0.0429	0.12	0.0178	
COC(=O)C1=CSC2(S1)C(C(=O)OC)=CSc1c2ssc1=Nc1ccccc1 (stereo unspecified)	14.6	4.37			8.67	3.55	8.43	> 100	> 100	6.23	7.09	9.07	6.09	8.76	7.26	3.52	> 100	5.13	4.95	> 100
CC1(C)CC(=O)c2c(nc3ccc4ccccc4c3c2-c2ccc(NC(=O)CCCC(=O)Nc3ccc(-c4c5c(nc6ccc7ccccc7c46)CC(C)(C)CC5=O)cc3)cc2)C1	> 100	> 100	> 100	> 100	> 100	> 100	> 100	> 100	> 100	> 100	> 100	> 100	> 100	> 100	> 100	> 100	> 100	> 100		> 100
O=C(c1ccccc1)c1ccc(COc2ccc(C(c3c(O)c4ccccc4oc3=O)c3c(O)c4ccccc4oc3=O)cc2)cc1	65.2	39.2	> 100		47.4	45.4	37.6	48.6	34.5	37.2	44.1	37.2	32.7	80.4	38.7	30	77.3			62
CNC(=O)N1CN(c2ccccc2)C2(CCN(CCCC(=O)c3ccc(F)cc3)CC2)C1=O	> 100	22.3	33.6	37.8	22.8	33.6	87.5		41.6	> 100	31	26.7	> 100	> 100	24.2	43.4	28.1	40.8	35.3	
O=[N+]([O-])/C=C1\COCc2cc3c(cc21)OCO3	39.8	42	36.2	57.4	> 100	> 100	27.1	93.8	35.9	84.4	> 100	39.9	38.9	47.4	40.9	51.8	34.7	26.9		40.4
O=c1oc2ccccc2cc1/C=N/N1C(=S)N(c2ccccc2)C(=Nc2ccccc2)C1=Nc1ccccc1	> 100	> 100	> 100		> 100	> 100	> 100	> 100	> 100	> 100	> 100	> 100	> 100	> 100	> 100	> 100	> 100	> 100	> 100	> 100
CCO[C@]12C[C@H](OC)[C@@]3(O)CC(C1[C@H]3OCc1ccccc1)C13C4C2[C@H](OC)C1[C@](COC)(CN4CC)[C@H](O)C[C@@H]3OC (stereo partly specified)	> 100	> 100	> 100	> 100	> 100	> 100	> 100	> 100		> 100		> 100	> 100	> 100	> 100	> 100	> 100	> 100		
COc1cc(OC)c(/C=C2\N=C(C)N(Nc3nnc(NN4C(=O)/C(=C/c5c(OC)cc(OC)cc5OC)N=C4C)c4ccccc34)C2=O)c(OC)c1	> 100	> 100	> 100	> 100	> 100	> 100	> 100	> 100		> 100	> 100	> 100	> 100	> 100	> 100	> 100		> 100		
COc1cccc(/C=C2/Sc3scc(-c4ccccc4)[n+]3C2=O)c1O	> 100	> 100	29.9	39.6	68.4	49.5	38.9	37.9	95.3	35.4	> 100	31.1	> 100	43.8	44.9	30.5	26.9	> 100		
COc1ccc(N2C(=O)C3c4[nH]c5ccc(C)cc5c4C4CCC(C)CC4C3C2=O)cc1 (stereo unspecified)	> 100	> 100	> 100			> 100	> 100	> 100	> 100	> 100	> 100	> 100		> 100	> 100	> 100	> 100	> 100	> 100	> 100
CC12Nc3ccccc3N1C(=O)c1ccccc12 (stereo unspecified)	> 100	> 100	> 100	> 100	> 100	> 100	> 100	> 100	> 100	> 100	> 100	> 100		> 100	> 100	> 100	> 100	> 100		> 100
CC(=O)C1=CSC2[C@H](NC(=O)Cc3ccccc3)C(=O)N2C1C(=O)OC(c1ccccc1)c1ccccc1 (stereo partly specified)	> 100	> 100		> 100	> 100	> 100	> 100		> 100	> 100	> 100	> 100	> 100	> 100	> 100	> 100	> 100	> 100	> 100	
Cn1c(/C=C(\O)c2ccc(Cl)cc2)nc2ccccc21	69.4	> 100	> 100	77.1		> 100	> 100	> 100	> 100	> 100	> 100	92.4	> 100	> 100	67.1	> 100	66.1	> 100	> 100	
O=c1cc(-c2ccccc2)[nH]c2cc(O)ccc12	81.8	32.3	30.6	40.7	70.9	54.7	87.6	33.3		> 100	> 100	83.4	72.5	31.3	48.2	46.5	49.3	39	> 100	
COc1cc(/C=C2/CCS(=O)(=O)c3ccc(C)cc3C2=O)cc(OC)c1OC	> 42	16.9	> 39		23.1	> 100	> 36.2	13.5	20.1	11.5	42.1	> 38.3	30	> 45.4	> 42.7	16.8	23.4	18.9	> 36.3	> 33.3
CCOC1(COP(=O)(OCc2ccccc2)OCc2ccccc2)COC(COP(=O)(OCc2ccccc2)OCc2ccccc2)(OCC)CO1 (stereo unspecified)	> 100	> 100	> 100	> 100	> 100	> 100	> 100	> 100	> 100	> 100	> 100	> 100		> 100	> 100	> 100		> 100	> 100	
O=C1C2CC=CCC2C(=O)N1n1c(-c2ccccc2)n[nH]c1=O (stereo unspecified)	> 100	> 100	> 100		> 100	> 100	> 100	> 100	> 100	> 100	> 100	> 100		> 100	> 100	> 100	> 100	> 100	> 100	> 100
CN(CCO)c1nc2c(c(=O)[nH]1)CCC2	> 100	> 100	> 100	> 100	> 100	> 100	> 100	> 100	> 100	> 100	> 100	> 100	> 100	> 100	> 100	> 100	> 100	> 100	> 100	
CCOC(=O)CSc1nc(-c2ccccc2)c(C#N)c(=O)[nH]1	> 100	> 100	> 100	> 100	> 100	> 100	> 100	> 100	> 100	> 100	> 100	> 100	> 100	> 100	> 100	> 100	> 100	> 100		
